# pEC50: −log10 of the molar value. Several values for one entry are separate records, joined by “and”; a condition that tells them apart may be missing. Equal values may be shown once. Entries after “also recorded” stand apart in the source; their conditions may differ.
# Key:
# [1] = molecular target: T1, Sirt5 (Homo sapiens, UniProt Q9NXA8); assay: Coupled enzymatic desuccinylation assay, Sirt5 with CPS1-succK537 peptide; type: biochemical; conditions: for Effect on Sirt5 activity (in words): coupled assay, 10 and 100 μM compound
# T1 sequence (Q9NXA8 34-302): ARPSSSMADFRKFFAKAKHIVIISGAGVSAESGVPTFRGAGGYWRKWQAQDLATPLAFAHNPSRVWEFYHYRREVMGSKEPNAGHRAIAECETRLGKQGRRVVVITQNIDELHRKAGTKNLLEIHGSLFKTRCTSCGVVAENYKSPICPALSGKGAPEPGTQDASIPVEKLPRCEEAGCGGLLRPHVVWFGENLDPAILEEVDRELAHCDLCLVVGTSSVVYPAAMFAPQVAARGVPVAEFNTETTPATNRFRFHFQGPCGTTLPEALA
# [2] = molecular target: T2, Sirt2 (Homo sapiens, UniProt Q8IXJ6); assay: Coupled enzymatic deacetylation assay, Sirt2 with α-tubulin-acK25 peptide; type: biochemical; conditions: for Sirt2 activation (α-tubulin-acK25 deacetylation): 100 μM compound; for Effect on Sirt2 activity (in words): coupled assay, 10 and 100 μM compound
# T2 sequence (Q8IXJ6 43-356): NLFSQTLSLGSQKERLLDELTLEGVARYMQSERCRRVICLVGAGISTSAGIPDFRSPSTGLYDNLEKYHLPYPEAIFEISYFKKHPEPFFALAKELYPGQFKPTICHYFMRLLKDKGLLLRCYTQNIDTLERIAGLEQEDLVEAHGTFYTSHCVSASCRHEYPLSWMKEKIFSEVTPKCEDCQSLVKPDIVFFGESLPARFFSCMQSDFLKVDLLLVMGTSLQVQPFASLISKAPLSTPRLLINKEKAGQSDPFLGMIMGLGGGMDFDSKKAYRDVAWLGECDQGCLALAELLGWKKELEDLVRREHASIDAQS
# [3] = molecular target: T3, Sirt3 (Homo sapiens, UniProt Q9NTG7); assay: Coupled enzymatic deacetylation assay, Sirt3 with ACS2-acK642 peptide; type: biochemical; conditions: for Effect on Sirt3 activity (in words): coupled assay, ACS2 peptide, 10 and 100 μM compound
# T3 sequence (Q9NTG7 114-380): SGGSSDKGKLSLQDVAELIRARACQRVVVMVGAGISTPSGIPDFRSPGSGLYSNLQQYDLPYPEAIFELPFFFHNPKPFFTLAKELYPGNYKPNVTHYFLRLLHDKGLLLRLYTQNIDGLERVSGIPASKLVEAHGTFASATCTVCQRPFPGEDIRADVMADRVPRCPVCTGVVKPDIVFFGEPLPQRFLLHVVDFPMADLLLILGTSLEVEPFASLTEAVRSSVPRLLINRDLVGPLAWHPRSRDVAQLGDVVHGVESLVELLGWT
# [4] = system: mouse embryonic fibroblasts (MEFs); assay: Mitochondrial mass by FACS; type: cell-based; conditions: 25 μM, 24 h
# [5] = system: GDH acetylation; assay: GDH immunoprecipitation and Lys acetylation Western blot, MDA-MB-231 cells; type: cell-based, human; conditions: 50 μM
# [6] = molecular target: T4, Sirt3 (Homo sapiens, UniProt Q9NTG7); assay: Cellular SIRT3 deacetylase activity assay; type: cell-based; conditions: MDA-MB-231 cells, 50 and 100 μM, 3 h
# T4 sequence (Q9NTG7 1-399): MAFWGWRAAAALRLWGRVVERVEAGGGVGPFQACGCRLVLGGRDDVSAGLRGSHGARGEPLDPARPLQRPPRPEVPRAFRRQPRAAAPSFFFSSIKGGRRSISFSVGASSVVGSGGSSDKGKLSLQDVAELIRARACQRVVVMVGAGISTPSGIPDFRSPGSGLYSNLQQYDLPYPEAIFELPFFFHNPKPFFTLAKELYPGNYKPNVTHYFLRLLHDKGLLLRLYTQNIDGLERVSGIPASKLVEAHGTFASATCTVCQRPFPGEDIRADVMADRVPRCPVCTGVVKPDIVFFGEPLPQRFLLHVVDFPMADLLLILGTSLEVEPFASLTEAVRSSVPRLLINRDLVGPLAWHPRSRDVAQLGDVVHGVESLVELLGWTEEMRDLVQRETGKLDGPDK
# [7] = system: MnSOD-Lys68 acetylation; assay: MnSOD-Lys68 acetylation Western blot in MDA-MB-231 cells; type: cell-based, human
# [8] = molecular target: T5, Sirt5 (Homo sapiens, UniProt Q9NXA8); assay: PDC deacylation assay: PDHA1 desuccinylation by recombinant Sirt5; type: biochemical; conditions: 100 μM compound, PDHA1 from porcine heart tissue
# T5 sequence (Q9NXA8 37-310): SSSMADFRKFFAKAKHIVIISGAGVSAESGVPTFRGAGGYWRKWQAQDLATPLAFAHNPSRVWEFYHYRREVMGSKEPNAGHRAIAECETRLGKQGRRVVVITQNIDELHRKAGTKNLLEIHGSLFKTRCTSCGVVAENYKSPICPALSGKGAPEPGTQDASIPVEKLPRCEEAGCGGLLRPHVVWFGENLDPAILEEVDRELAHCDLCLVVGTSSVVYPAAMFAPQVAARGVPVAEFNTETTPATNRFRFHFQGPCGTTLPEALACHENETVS
# [9] = system: glutaminase (GLS); assay: GLS activity assay in MDA-MB-231 cell lysates; type: cell-based, human; conditions: MDA-MB-231 cells, 50 μM, 4 and 24 h
# [10] = system: GDH; assay: GDH activity assay in MDA-MB-231 cell lysates; type: cell-based, human; conditions: wild-type MDA-MB-231 cells, 50 μM, 4 or 24 h
# [11] = system: MDA-MB-231 cells; assay: Ammonia level assay, MDA-MB-231 cells; type: cell-based, human; conditions: 50 μM, 4 and 24 h
smiles,measurement,setting,value
CCOC(=O)C1=CN(Cc2ccccc2)C=C(C(=O)OCC)C1c1ccc(-c2ccccc2)cc1 [Compound 2],Effect on Sirt5 activity (in words),[1],Sirt5 activation
CCOC(=O)C1=CN(Cc2ccccc2)C=C(C(=O)OCC)C1c1cccc2ccccc12 [Compound 3],Effect on Sirt5 activity (in words),[1],Sirt5 activation
CCOC(=O)C1=CN(Cc2ccccc2)C=C(C(=O)OCC)C1c1ccc2ccccc2c1 [Compound 4],Sirt5 activation (CPS1-succK537 desuccinylation),[1]; 10 μM compound,1.2- to 1.5 fold
same,Effect on Sirt5 activity (in words),[1],Sirt5 activation
CCOC(=O)C1=CN(Cc2ccccc2)C=C(C(=O)OCC)C1c1ccco1 [Compound 5],Sirt2 activation (α-tubulin-acK25 deacetylation),[2],less than 1.5 fold
same,Effect on Sirt2 activity (in words),[2],weak Sirt2 activation
CCOC(=O)C1=CN(Cc2ccccc2)C=C(C(=O)OCC)C1c1nccs1 [Compound 7],Effect on Sirt3 activity (in words),[3],Sirt3 activation; also recorded: comparable to the parent compound
CCOC(=O)C1=CN(Cc2ccccc2)C=C(C(=O)OCC)C1c1cc2ccccc2s1 [Compound 9],Sirt5 activation (CPS1-succK537 desuccinylation),[1]; 100 μM compound,2- to 3 fold
same,Effect on Sirt5 activity (in words),[1],Sirt5 activation
CCOC(=O)C1=CN(Cc2ccccc2)C=C(C(=O)OCC)C1c1cnc2ccccc2c1 [Compound 10],Effect on Sirt3 activity (in words),[3],Sirt3 activation; also recorded: comparable to the parent compound
same,Effect on mitochondrial mass,[4]; Sirt3 knock-out MEFs,no significant compound effect
same,Increase of mitochondrial mass,[4]; wild-type MEFs,about 2.5 fold
CCOC(=O)C1=CN(C(=O)c2ccccc2)C=C(C(=O)OCC)C1c1ccccc1 [Compound 11],pEC50,[3],3.70 to 4.00
same,Sirt3 activity,[3]; 100 μM compound,over 300%
same,GDH overall Lys acetylation,[5],decreased acetylation levels
same,FdL deacetylation (Sirt3) activity in cell lysates,[6],significant increase in FdL deacetylation activity
same,MnSOD-Lys68 acetylation,"[7]; MDA-MB-231 cells, 50 μM",decrease in MnSOD-Lys68 acetylation
same,MnSOD-Lys68 acetylation,"[7]; Sirt3 silenced MDA-MB-231 cells, 16 h",did not decrease MnSOD-Lys68 acetylation
CCOC(=O)C1=CN(C(=O)c2ccccc2)C=C(C(=O)OCC)C1c1cccc(Cl)c1 [Compound 13],Sirt5 activation (CPS1-succK537 desuccinylation),[1]; 10 μM compound,1.2- to 1.5 fold
same,Sirt5-dependent desuccinylation of PDHA1,[8],clearly enhanced
CCOC(=O)C1=CN(C(=O)c2ccccc2)C=C(C(=O)OCC)C1c1ccc(Cl)cc1 [Compound 14],Sirt5 activation (CPS1-succK537 desuccinylation),[1]; 10 μM compound,1.2- to 1.5 fold
CCOC(=O)C1=CN(C(=O)c2ccccc2)C=C(C(=O)OCC)C1c1cccc(C)c1 [Compound 16],GLS activity in cell lysates,[9],no such effects
same,GDH activity in cell lysates,[10],no significant changes in GDH activity
same,Ammonia accumulation,[11],no such effects
CCOC(=O)C1=CN(C(=O)c2ccccc2)C=C(C(=O)OCC)C1c1ccc(C)cc1 [Compound 17],Effect on Sirt5 activity (in words),[1],specific Sirt5 activation
CCOC(=O)C1=CN(C(=O)c2ccccc2)C=C(C(=O)OCC)C1c1ccccc1OC [Compound 18],Effect on Sirt5 activity (in words),[1],specific Sirt5 activation
CCOC(=O)C1=CN(C(=O)c2ccccc2)C=C(C(=O)OCC)C1c1ccc(OC)cc1 [Compound 20],Sirt5 activation (CPS1-succK537 desuccinylation),[1]; 10 μM compound,1.2- to 1.5 fold
CCOC(=O)C1=CN(C(=O)c2cccc3ccccc23)C=C(C(=O)OCC)C1c1ccccc1 [Compound 21],Sirt5 activation (CPS1-succK537 desuccinylation),[1]; 100 μM compound,2- to 3 fold
same,Effect on Sirt5 activity (in words),[1],specific Sirt5 activation
CCOC(=O)C1=CN(C(=O)c2ccc3ccccc3c2)C=C(C(=O)OCC)C1c1ccccc1 [Compound 22],Effect on Sirt3 activity (in words),[3],comparable to the parent compound
same,Sirt2 activation (α-tubulin-acK25 deacetylation),[2],less than 1.5 fold
CCOC(=O)C1=CN(C(=O)c2cnccn2)C=C(C(=O)OCC)C1c1ccccc1 [Compound 23],Sirt5 activation (CPS1-succK537 desuccinylation),[1]; 10 μM compound,1.2- to 1.5 fold
same,Sirt5 activation (CPS1-succK537 desuccinylation),[1]; 100 μM compound,2- to 3 fold
same,Effect on Sirt5 activity (in words),[1],specific Sirt5 activation
CCOC(=O)C1=CN(C(=O)c2cnc3ccccc3n2)C=C(C(=O)OCC)C1c1ccccc1 [Compound 24],Effect on Sirt3 activity (in words),[3],comparable to the parent compound
same,Sirt5 activation (CPS1-succK537 desuccinylation),[1]; 10 μM compound,1.2- to 1.5 fold
same,Sirt5 activation (CPS1-succK537 desuccinylation),[1]; 100 μM compound,2- to 3 fold and 2.5 fold
"CCOC(=O)C1=CN(Cc2cc(OC)c(OC)c(OC)c2)C=C(C(=O)OCC)C1c1ccccc1 [Compound 25, Diethyl 4-Phenyl-1-(3,4,5-trimethoxybenzyl)-1,4-dihydropyridine-3,5-dicarboxylate]",Effect on Sirt3 activity (in words),[3],lost their effects towards Sirt3
"CCOC(=O)C1=CN(Cc2cc(OC)c(OC)c(OC)c2)C=C(C(=O)OCC)C1c1cnc2ccccc2c1 [Compound 26, Diethyl 4-(Quinolin-3-yl)-1-(3,4,5-trimethoxybenzyl)-1,4-dihydropyridine-3,5-dicarboxylate]",Effect on Sirt3 activity (in words),[3],lost their effects towards Sirt3
"CCOC(=O)C1=CN(C(=O)c2ccccc2)C=C(C(=O)OCC)C1c1ccco1 [Compound 27, Diethyl 1-Benzoyl-4-(furan-2-yl)-1,4-dihydropyridine-3,5-dicarboxylate]",Sirt5 activation (CPS1-succK537 desuccinylation),[1]; 100 μM compound,about 2 fold
"CCOC(=O)C1=CN(C(=O)c2ccccc2)C=C(C(=O)OCC)C1c1ccoc1 [Compound 28, Diethyl 1-Benzoyl-4-(furan-3-yl)-1,4-dihydropyridine-3,5-dicarboxylate]",Sirt5 activation (CPS1-succK537 desuccinylation),[1]; 100 μM compound,3- to 3.5 fold
"CCOC(=O)C1=CN(C(=O)c2cc(OC)c(OC)c(OC)c2)C=C(C(=O)OCC)C1c1cccc(N)c1 [Compound 38, Diethyl 4-(3-Aminophenyl)-1-(3,4,5-trimethoxybenzoyl)-1,4-dihydropyridine-3,5-dicarboxylate]",Sirt5 activation (CPS1-succK537 desuccinylation),[1]; 100 μM compound,3- to 3.5 fold and 3.5 fold
same,Sirt2 activation (α-tubulin-acK25 deacetylation),[2],2 fold
"CCOC(=O)C1=CN(C(=O)c2cc(OC)c(OC)c(OC)c2)C=C(C(=O)OCC)C1c1ccco1 [Compound 40, Diethyl 4-(Furan-2-yl)-1-(3,4,5-trimethoxybenzoyl)-1,4-dihydropyridine-3,5-dicarboxylate]",Effect on Sirt2 activity (in words),[2],smaller effects
"CCOC(=O)C1=CN(C(=O)c2cc(OC)c(OC)c(OC)c2)C=C(C(=O)OCC)C1c1ccoc1 [Compound 41, Diethyl 4-(Furan-3-yl)-1-(3,4,5-trimethoxybenzoyl)-1,4-dihydropyridine-3,5-dicarboxylate]",Effect on Sirt2 activity (in words),[2],smaller effects

# Source: publication PMC9653166 (Journal of medicinal chemistry, 2022)
